2 molecules from patent US20090197853A1, “METHODS AND COMPOSITIONS OF TREATING CANCER” (priority 2005, published 2009) can be followed below.

Entries after “also recorded” stand apart in the source; their conditions may differ.

Series [1] deals with metallothionein gene family members and ZnT1. The series can be described thus: Northern blot analysis, PC3 cultures. As to conditions: PC3, 4 hours. The class given is cell-based. As for the experimental part:
(§1) Methods: Northern Blot Analysis—Plateau phase cultures of A549 cells were prepared as described above, except that T-25 flasks were used, and the number of cells initially plated scaled accordingly. Cultures were treated with 50 μM MGd, 5 μM Gd(OAc)3 or 5% mannitol for 4 hours, whereupon cultures were washed twice with PBS and RNA harvested as above. Alternatively, 7-day plateau phase A549 or PC3 cultures were treated with 50 μM MGd, 50-100 μM Zn(OAc)2, 50 μM CdCl2 or 5% mannitol for 24 hours (A549) or 4 hours (PC3) prior to washing and RNA analysis. Exponential phase Ramos cultures were treated for 6 hours. Northern blots were conducted and analyzed. Radio labeled metallothionein probe, designed to bind to a 113-bp region of 3′-UTR sequences from multiple metallothionein gene family members, was generated using 5′-[…]-3′ (forward) and 5′-[…]-3′ (reverse) PCR primers and the NEBlot kit (New England Biolabs, Inc.). Radio labeled ZnT1 probe was generated in a similar fashion using 5′-[…]-3′ (forward) and 5′-[…]-3′ (reverse) primers.

The test system is the same in series [2]. The experiment in a line: Northern blot analysis, Ramos cultures. The class given is cell-based. As to conditions: 6 hours. As for the experimental part: as §1
For series [3], the system named is A549 cells. The series can be described thus: Intracellular free zinc (FluoZin-3 fluorescence), A549. Type of series: cell-based, human. The following applies: for Increase in cellular FluoZin-3 fluorescence: A549, MGd in the absence of actinomycin D. As for the experimental part:
Methods: The concentration of intracellular free zinc was assessed using the ion-specific fluorescent probe, FluoZin-3-AM™ (FluoZin-3, Molecular Probes, Inc.). […] Following treatment, cells were isolated by centrifugation. Cell pellets were washed and re-suspended in a solution of 0.5% BSA in PBS.

Series [4] relates to A549 cells.
Description: (§2) Methods: Cellular Viability. Cell viability was determined by using propidium iodide (PI) flow cytometric analysis. Cells from plateau phase cultures grown in T-25 flasks were harvested as described above, except that cells present in the growth medium and wash solution were isolated by centrifugation and included in the analysis. Cells were resuspended in 1 mL PBS, an aliquot of 3×10^5 cells transferred to a 4 mL tube, and the cells isolated by centrifugation. Cell pellets were resuspended in PBS supplemented with 2 μg/mL propidium iodide (Sigma), incubated for 5 minutes at ambient temperature, and subjected to flow cytometric analysis. Flow cytometry was performed on a FACSCalibur instrument and data were analyzed using the CellQuest Pro software package (BD Biosciences).
For series [5], the system named is A549 human lung cancer cells. The series can be described thus: Gene expression profiling on Affymetrix U133A microarrays, plateau phase A549 cultures. The class given is cell-based. As to conditions: 50 μM MGd. Here is the method:
Methods: A549 human lung cancer cells (6.5×10^5 cells per T-162 flask in 45 mL complete RPMI 1640 medium) were seeded 10 days prior to treatment of non-cycling plateau phase cultures with MGd. At 4, 12, or 24 hours prior to RNA isolation, MGd (50 μM final concentration) or control (5% mannitol) solution was added to the cultures. Each time course experiment was performed in triplicate. After incubation, all cultures were washed once with PBS and total RNA was subjected to analysis on Affymetrix U133A microarrays, designed to interrogate the relative abundance of over 15,000 human genes.
We used Microarray Suite version 5.0 software (Affymetrix) to generate raw gene expression scores and normalized the relative hybridization signal from each experiment. All gene expression scores were set to a minimum value of one hundred in order to minimize noise associated with less robust measurements of rare transcripts. The permutation-based significance analysis of microarrays (SAM) was used to determine genes differentially expressed in response to MGd treatment compared to the control 5% mannitol-treated cultures (0.125% final) at each time point. We report all genes at least 2-fold differentially expressed with a less than a 1% False Discovery Rate (FDR) in response to MGd treatment (FIG. 10).

Series [6] in a line: HPLC analysis of MGd stability in medium from plateau phase cultures. The class given is physicochemical. The following applies: after 24 hours. Here is the method: Results: Studies were performed to determine whether the metallothionein transcript up-regulation observed in the microarray analysis could be a consequence of free gadolinium(III) cation, released from MGd into the cell culture medium. […] Since the microarray analysis indicated strong transcript up-regulation after 4 hours of treatment with drug, this time interval was selected for further investigation of RNA transcript levels. RNA was harvested from plateau phase cultures treated with control vehicle, 50 μM MGd, or 5 μM Gd(OAc)3 for 4 hours. […] Thus, even assuming a 10% loss of drug over the initial 4 hour incubation period, the resulting release of Gd(III) ion into the culture medium would be insufficient to induce the observed metallothionein and ZnT1 transcript levels.

Series [7] has as its system metallothionein gene family members and ZnT1. The experiment in a line: Northern blot analysis, A549 cultures. As to conditions: for Metallothionein transcript levels: A549, 24 hours, 50 μM MGd, Zn(OAc)2 100 μM, CdCl2 50 μM, FIG. 2B. The class given is cell-based, human. As for the experimental part:
as §1

Series [8] relates to A549 cells. The experiment in a line: Cell viability by propidium iodide exclusion, A549.
Description: as §2
For series [9], the system named is PC3 prostate cancer cells. The experiment in a line: Cell viability by propidium iodide exclusion, PC3. The class given is cell-based.
Description: Methods: Cellular Viability—Cell viability was determined by using propidium iodide (PI) flow cytometric analysis. Cells from plateau phase cultures grown in T-25 flasks were harvested as described above, except that cells present in the growth medium and wash solution were isolated by centrifugation and included in the analysis. Cells were resuspended in 1 mL PBS, an aliquot of 3×10^5 cells transferred to a 4 mL tube, and the cells isolated by centrifugation. Cell pellets were resuspended in PBS supplemented with 2 μg/mL propidium iodide (Sigma), incubated for 5 minutes at ambient temperature, and subjected to flow cytometric analysis.
The subject of a further series is Thioredoxin reductase. The following applies: plateau phase PC3 cultures. As for the experimental part: Methods: Lipoate Reduction. Thioredoxin reductase activity was assessed by measuring the rate of lipoate reduction. In brief, A549 or PC3 cells (10,000 cells/well) were plated on 96-well plates and allowed to adhere overnight and grow two additional days until confluent. Cells were treated with MGd, zinc, or 5% mannitol for 2-4 hours, as indicated. Medium was removed, cells were washed with Hanks Balanced Salt Solution (HBSS), and a solution of 5 mM lipoic acid and 1 mM 5,5′-dithiobis(2-nitrobenzoic acid) in HBSS (100 μL/well) was added. Plates were incubated at ambient temperature in the dark. At chosen time intervals, plate absorbance was measured at 405-650 nm. Plate absorbances were normalized to wells containing neither exogenous zinc nor texaphyrin complex to allow plate-to-plate comparison. In some experiments, L-buthionine-[S,R]-sulfoximine (BSO, 100 μM) was added 24 hours prior to MGd or zinc treatment, to inhibit any contribution to lipoate reduction made by glutathione-dependent pathways (28). Actinomycin D (2.5 μg/mL) or cycloheximide (10 μg/mL), where present, was added 1 hour prior to texaphyrin or zinc treatment. Viability was checked on parallel plates using the tetrazolium dye 3-(4,5-dimethylthiazol-2-yl)-5-(3-carboxymethoxyphenyl)-2-(4-sulfophenyl)-2H-tetrazolium (MTS) following the manufacturers protocol (Promega Corp.).

For series [10], the system named is acute promyelocytic leukemia line (HL60). The following applies: 50 to 100 μM zinc. Here is the method:
Cellular Proliferation—The proliferation of exponential phase cultures was assessed by colorimetric assay. In brief, 2×10^5 suspension cells per well were seeded on 96-well V-bottom microtiter plates. Stock solutions of control vehicle, MGd or Zn(OAc)2 in medium were added and plates were incubated at 37° C. under a 5% CO2/95% air atmosphere. After 24 hours, medium was replaced with fresh medium. After 2 additional days, medium was exchanged with fresh medium (150 μL/well) supplemented with 3-(4,5-dimethylthiazol-2-yl)-2,5-diphenyltetrazolium bromide (MTT, 0.5 mg/mL, Sigma Biochemical, St. Louis, Mo.). Plates were incubated at 37° C. and viable cells measured.

For the molecule `CC(=O)[O-].CC(=O)[O-].CCc1c(CC)c2cc3nc(cnc4cc(OCCOCCOCCOC)c(OCCOCCOCCOC)cc4ncc4nc(cc1[n-]2)C(CCCO)=C4C)C(C)=C3CCCO.O.[Gd+3]` [MGd, Motexafin gadolinium], the “Expression of metallothionein family members and ZnT1” value in series [1] and in [2] was “increased” each time. The “Increase in cellular FluoZin-3 fluorescence” value is 1.2 fold in the series with A549 cells [3] (serum medium) and 1.1 fold in the series on A549 cells [3] (serum-free medium). In addition, the “Effect of MGd on the cytotoxicity of Zn(OAc)2” value in the series on A549 cells [4] is listed as “potentiated”. Further, the “hbc647 transcript (likely 3′-UTR of ZnT1)” value in series [5] (all three time points) was “up-regulated”. In series [5] (all time points), the “Metallothionein isoform transcripts (microarray)” value is “up-regulation”. For the same molecule, the “Apparent loss of drug in medium (HPLC)” value in [6] came out at 4%. Also, in series [7], the Metallothionein transcript levels result is recorded as “raised; also recorded: significant increase”. Further, the “Induction of metallothionein gene family members and ZnT1 (Northern blot)” value in series [7] (A549 plateau phase, 4 hours, 50 μM MGd or 5 μM Gd(OAc)3) is given as “confirmed the induction; also recorded: induced”. Further, the “Effect of MGd on the cytotoxicity of CdCl2” value in the series with A549 cells [8] (A549 cells, FIG. 2A) is reported as “attenuated”.

As for `CC(=O)[O-].CC(=O)[O-].[Zn+2]` [Zn(OAc)2, Zinc acetate], the “Increased cell death (propidium iodide exclusion)” value in series [9] (PC3, within 48 hr, at 100 μM zinc) is 2 fold. For the same molecule, the Cell viability result in [9] (plateau phase PC3, after 24 hr) was “little effect on cell viability”. Moreover, the Lipoate reduction entry in the series on Thioredoxin reductase was “inhibited at lower concentrations of zinc”. Further, the “Cell-associated fluorescence of FluoZin-3 at 530 nm” value with A549 cells [3] (A549, 4 hours, Zn(OAc)2 50-100 μM) is given as “significantly increased”. Besides, the Metallothionein transcript levels result was “significant increase” in [7] and “raised” in series [7] (listed as zinc). Moreover, in the series with A549 cells [8] (A549, 24 hours, Zn(OAc)2 100 μM, CdCl2 50 μM, MGd 50 μM), the “Cellular viability (propidium iodide exclusion)” value was “no effect on cellular viability”. The Proliferation entry in series [10] is on record as “but not in an acute promyelocytic leukemia line (HL60)”.
